Reference: patent US9650361B2, “N-(pyridin-2-yl)pyrimidin-4-amine derivatives containing a sulfoximine group” (BAYER PHARAM AKTIENGESELLSCHAFT, priority 2012, dated 2017)
≈ marks a conversion by molar mass, not a printed value.

Key:
[1] = Equilibrium shake flask solubility assay, thermodynamic solubility in citrate buffer pH 4 (Method 4b); format: physicochemical; settings: aqueous buffer, thermodynamic from solid; citrate buffer pH 4, 24 h, room temperature; read-out: Solubility in Citrate buffer pH4
Method: 4b) Thermodynamic Solubility in Citrate Buffer pH 4
Thermodynamic solubility was determined by an equilibrium shake flask method [Literature: Edward H. Kerns and Li Di (2008) Solubility Methods in: Drug-like Properties: Concepts, Structure Design and Methods, p 276-286. Burlington, Mass.: Academic Press].
A saturated solution of the drug was prepared and the solution was mixed for 24 h to ensure that equilibrium has been reached. The solution was centrifuged to remove the insoluble fraction and the concentration of the compound in solution was determined using a standard calibration curve.
To prepare the sample, 1.5 mg solid compound was weighed in a 4 ml glass vial. 1 ml Citrate buffer pH 4 was added. The suspension was put on a stirrer and mixed for 24 hrs at room temperature. The solution was centrifuged afterwards. To prepare the sample for the standard calibration, 0.6 mg solid sample was dissolved in 19 ml acetonitrile/water 1:1. After sonification the solution was filled up with acetonitrile/water 1:1 to 20 ml.
Sample and standards were quantified by HPLC with UV-detection. For each sample two injection volumes (5 and 50 μl) in triplicates were made. Three injection volumes (5 μl, 10 μl and 20 μl) were made for the standard.
Citrate buffer pH 4 (MERCK Art. 109435; 1 L buffer consisting of 11,768 g citric acid,
4,480 g sodium hydroxide, 1,604 g hydrogen chloride)
Chromatographic conditions were as follows:
HPLC column: Xterra MS C18 2.5 μm 4.6×30 mm
Injection volume: Sample: 3×5 μl and 3×50 μl
• Standard: 5 μl, 10 μl, 20 μl Flow: 1.5 ml/min Mobile phase: acidic gradient: • A: Water/0.01% TFA • B: Acetonitrile/0.01% TFA • 0 min: 95% A 5% B • 0-3 min: 35% A 65% B, linear gradient • 3-5 min: 35% A 65% B, isocratic • 5-6 min: 95% A 5% B, isocratic UV detector: wavelength near the absorption maximum (between 200 and 400 nm)
The areas of sample- and standard injections as well as the calculation of the solubility value (in mg/l) were determined by using HPLC software (Waters Empower 2 FR).

[2] = Caco-2 permeation assay (Method 5); format: in vitro ADME; settings: human, Caco-2, pH 7.2, 2 μM test compound; for Papp A→B at 2 h, 2 µM: read-out: Papp A-B (Mari); for Papp B→A at 2 h, 2 µM: read-out: Papp B-A (Mari); for efflux ratio at 2 h, 2 µM: Papp B-A / Papp A-B
Method: 5. Caco-2 Permeation Assay:
Caco-2 cells (purchased from DSMZ Braunschweig, Germany) were seeded at a density of 4.5×10^4 cells per well on 24 well insert plates, 0.4 μm pore size, and grown for 15 days in DMEM medium supplemented with 10% fetal bovine serum, 1% GlutaMAX (100×, GIBCO), 100 U/mL penicillin, 100 μg/mL streptomycin (GIBCO) and 1% non essential amino acids (100×). Cells were maintained at 37° C. in a humidified 5% CO2 atmosphere. Medium was changed every 2-3 day. Before running the permeation assay, the culture medium was replaced by a FCS-free hepes-carbonate transport buffer (pH 7.2). For assessment of monolayer integrity the transepithelial electrical resistance (TEER) was measured. Test compounds were predissolved in DMSO and added either to the apical or basolateral compartment in final concentration of 2 μM in transport buffer. Before and after 2 h incubation at 37° C. samples were taken from both compartments. Analysis of compound content was done after precipitation with methanol by LC/MS/MS analysis. Permeability (Papp) was calculated in the apical to basolateral (A→B) and basolateral to apical (B→A) directions. The apparent permeability was calculated using following equation: Papp=(Vr/Po)(1/S)(P2/t)
Where Vr is the volume of medium in the receiver chamber, Po is the measured peak area or height of the test drug in the donor chamber at t=o, S the surface area of the monolayer, P2 is the measured peak area of the test drug in the acceptor chamber after 2 h of incubation, and t is the incubation time. The efflux ratio basolateral (B) to apical (A) was calculated by dividing the Papp B-A by the Papp A-B. In addition the compound recovery was calculated. The following reference compounds were used for the classification of the permeability class: Antipyrine, Pyrazosin, Verapamil, Fluvastatin, Cimetidine, Ranitidine, Atenolol, Sulfasalazine.

[3] = target: T1, human carbonic anhydrase-1 (Homo sapiens, UniProt P00915); experiment: Carbonic anhydrase assay, carbonic anhydrase-1 (Method 6); format: biochemical; settings: read-out: Inhibition of Carbonic anhydrase-1 IC50
T1 construct: purchased Sigma C4396
T1 sequence (P00915 whole entry): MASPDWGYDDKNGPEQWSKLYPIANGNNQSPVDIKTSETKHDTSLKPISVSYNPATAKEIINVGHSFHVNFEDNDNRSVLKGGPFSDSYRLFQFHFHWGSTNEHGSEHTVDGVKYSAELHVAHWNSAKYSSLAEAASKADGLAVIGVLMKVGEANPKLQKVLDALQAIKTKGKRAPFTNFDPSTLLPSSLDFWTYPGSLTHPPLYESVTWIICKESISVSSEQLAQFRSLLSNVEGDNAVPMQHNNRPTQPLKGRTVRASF
Method: (§1) 6. Carbonic Anhydrase Assay
(§2) The principle of the assay is based on the hydrolysis of 4-nitrophenyl acetate by carbonic anhydrases (Pocker & Stone, Biochemistry, 1967, 6, 668), with subsequent photometric determination of the dye product 4-nitrophenolate at 400 nm by means of a 96-channel spectral photometer.
(§3) 2 μL of the test compounds, dissolved in DMSO (100-fold final concentration), in a concentration range of 0.03-10 μmol/L (final), was pipetted as quadruplicates into the wells of a 96-hole microtiter plate. Wells that contained the solvent without test compounds were used as reference values (1. Wells without carbonic anhydrase for correction of the non-enzymatic hydrolysis of the substrate, and 2. Wells with carbonic anhydrase for determining the activity of the non-inhibited enzyme).
(§4) 188 μL of assay buffer (10 mmol/L of Tris/HCl, pH 7.4, 80 mmol/L of NaCl), with or without 3 units/well of carbonic anhydrase-1 [=human carbonic anhydrase-1 (Sigma, #C4396)] in order to determine carbonic anhydrase-1 inhibition or 3 units/well of carbonic anhydrase-2 [=human carbonic anhydrase-2 (Sigma, #C6165)] for measuring carbonic anhydrase-2 inhibition, was pipetted into the wells of the microtiter plate.

[4] = target: T2, human carbonic anhydrase-2 (Homo sapiens, UniProt P00918); experiment: Carbonic anhydrase assay, carbonic anhydrase-2 (Method 6); format: biochemical; settings: read-out: Inhibition of Carbonic anhydrase-2 IC50
T2 construct: purchased Sigma C6165
Method: as §1, §2, §3, §4

Row | Compound | solubility at 24 h [1] | Papp A→B at 2 h, 2 µM [2] | Papp B→A at 2 h, 2 µM [2] | efflux ratio at 2 h, 2 µM [2] | IC50 [3] | IC50 [4]
1 | COc1cc(F)ccc1-c1cc(Nc2cc(CS(C)(=N)=O)cc(Cl)n2)ncn1 (racemic) [Example 4, (rac)-N-{6-Chloro-4-[(S-methylsulfonimidoyl)methyl]pyridin-2-yl}-6-(4-fluoro-2-methoxyphenyl)pyrimidin-4-amine] | 15 µg/mL (≈ 35.6 µM) | – | – | – | – | –
2 | COc1cc(F)ccc1-c1cc(Nc2cc(CS(C)(=N)=O)cc(C(F)(F)F)n2)ncn1 (racemic) [Example 10, (rac)-6-(4-Fluoro-2-methoxyphenyl)-N-{4-[(S-methylsulfonimidoyl)methyl]-6-(trifluoromethyl)pyridin-2-yl}pyrimidin-4-amine] | 11 µg/mL (≈ 24.2 µM) | 4.5 ×10⁻⁶ cm/s | 20.6 ×10⁻⁶ cm/s | 4.58 | – | –
3 | COc1cc(F)ccc1-c1cc(Nc2cc(CS(C)(=N)=O)cc(C)n2)ncn1 (racemic) [Example 7, (rac)-6-(4-Fluoro-2-methoxyphenyl)-N-{6-methyl-4-[(S-methylsulfonimidoyl)methyl]pyridin-2-yl}pyrimidin-4-amine] | 157 µg/mL (≈ 391 µM) | 3.9 ×10⁻⁶ cm/s | 28.9 ×10⁻⁶ cm/s | 7.49 | – | –
4 | COc1cc(F)ccc1-c1cc(Nc2cc(CS(C)(=N)=O)ccn2)ncn1 (racemic) [Example 1, (rac)-6-(4-Fluoro-2-methoxyphenyl)-N-{4-[(S-methylsulfonimidoyl)methyl]pyridin-2-yl}pyrimidin-4-amine] | – | 2.6 ×10⁻⁶ cm/s | 24.3 ×10⁻⁶ cm/s | 9.3 | > 10 µM | > 10 µM
